Data published in paper PMC3401608 (Journal of Medicinal Chemistry, 2012).
Read-outs that look alike come from different tables or passages of the source.

What was measured:
[1] = target: human cloned 5-HT6 receptors (Homo sapiens, UniProt P50406); assay: 5-HT6R radioligand competition binding assays
postmenopausal women = settings: 120 mg/day, but not 60 mg/day; cited from earlier work

human cloned 5-HT6 receptors, sequence (P50406 whole entry): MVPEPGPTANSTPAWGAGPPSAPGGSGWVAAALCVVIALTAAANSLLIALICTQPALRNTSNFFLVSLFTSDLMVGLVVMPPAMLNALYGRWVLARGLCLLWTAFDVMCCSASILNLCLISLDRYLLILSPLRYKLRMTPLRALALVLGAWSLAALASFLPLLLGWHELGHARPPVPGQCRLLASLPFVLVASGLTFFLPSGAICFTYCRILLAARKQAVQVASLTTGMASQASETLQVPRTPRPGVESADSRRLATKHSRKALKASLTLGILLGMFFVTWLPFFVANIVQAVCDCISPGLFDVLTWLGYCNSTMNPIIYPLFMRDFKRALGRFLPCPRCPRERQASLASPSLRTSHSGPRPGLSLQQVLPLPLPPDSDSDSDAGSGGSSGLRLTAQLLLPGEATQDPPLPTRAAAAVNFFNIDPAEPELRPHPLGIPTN

SMILES | Ki [1] [µM] | Ki ([1]; 5-HT6R, Table 6, unit inferred) [µM] | Risk of cognitive impairment (postmenopausal women)
CC(NCCC(c1ccccc1)c1ccccc1)c1ccccc1 (stereo not drawn) [Compound 5] | > 10 | > 10 | –
O=c1cc(N2CCOCC2)oc2c(-c3ccccc3)cccc12 [Compound 7] | – | > 10 | –
COc1ccccc1N1CCN(CCCCNC(=O)c2ccc3ccccc3c2)CC1 [Compound 9] | > 10 | > 10 | –
O=C(c1ccc(OCCN2CCCCC2)cc1)c1c(-c2ccc(O)cc2)sc2cc(O)ccc12 [Compound 10, raloxifene] | – | – | reduced risk of cognitive impairment
